Measured values taken from the Kinase Knowledgebase extract (Sharma et al. 2016).

Target: MAPK14 (human) (UniProt Q16539)
Assay: Inhibition of MAPK14 Kinase Activity

MAPK14 (human), sequence (Q16539 whole entry, looked up): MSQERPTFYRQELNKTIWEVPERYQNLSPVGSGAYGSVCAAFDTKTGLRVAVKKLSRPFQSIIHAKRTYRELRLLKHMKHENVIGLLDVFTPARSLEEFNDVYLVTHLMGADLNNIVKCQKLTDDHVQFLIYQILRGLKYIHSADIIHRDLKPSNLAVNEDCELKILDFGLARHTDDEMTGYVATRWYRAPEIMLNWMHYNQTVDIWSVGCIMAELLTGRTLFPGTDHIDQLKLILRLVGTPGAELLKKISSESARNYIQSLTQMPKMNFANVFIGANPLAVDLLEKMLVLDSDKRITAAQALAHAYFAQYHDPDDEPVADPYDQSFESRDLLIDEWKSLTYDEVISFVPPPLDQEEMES

Compound | IC50 [µM]
O=c1[nH]c2cc(Nc3ccccc3)ccc2n1Cc1ccccc1 | < 1
CN1CCN(c2cc3c(cc2Nc2ccccc2)[nH]c(=O)n3CC2CCCCC2)CC1 | < 1
CCS(=O)(=O)N1CCC(n2c(=O)[nH]c3cc(Nc4ccc(F)cc4F)ccc32)C1 (configuration not stated) | < 1
CC(C1CCCCC1)n1c(=O)[nH]c2cc(Nc3ccccc3)ccc21 (configuration not stated) | < 1
CNCC(C)(C)n1c(=O)[nH]c2cc(Nc3ccccc3F)ccc21 | < 1
CCS(=O)(=O)N1CCC(n2c(=O)[nH]c3cc(Nc4ccccc4)ccc32)C1 (configuration not stated) | < 1
Cc1ccccc1Nc1ccc2c(c1)[nH]c(=O)n2C1CCN(S(C)(=O)=O)C1 (configuration not stated) | < 1
CN1CCC(n2c(=O)[nH]c3cc(Nc4ccccc4)ccc32)C1 (configuration not stated) | < 1
Cc1ccccc1Nc1ccc2c(c1)[nH]c(=O)n2C(C)(C)CN | < 1
CCS(=O)(=O)N1CCC(n2c(=O)[nH]c3cc(Nc4ccccc4C)ccc32)C1 (configuration not stated) | < 1
CS(=O)(=O)N1CCC(n2c(=O)[nH]c3cc(Nc4ccccc4F)ccc32)C1 (configuration not stated) | < 1
O=c1[nH]c2cc(Nc3ccccc3)ccc2n1-c1ccccc1 | < 1
O=c1[nH]c2cc(Nc3ccccc3)ccc2n1C1CCc2ccccc21 (configuration not stated) | < 1
Cc1ccccc1Nc1ccc2c(c1)[nH]c(=O)n2C1CCN(C)C1 (configuration not stated) | < 1
C=C/C(=C\C=C(/C)F)Nc1ccc2c(c1)[nH]c(=O)n2C(C)(C)CN(C)C | < 1
CN1CCC(n2c(=O)[nH]c3cc(Nc4ccccc4F)ccc32)C1 (configuration not stated) | < 1
CS(=O)(=O)N1CCC(n2c(=O)[nH]c3cc(Nc4ccc(F)cc4F)ccc32)C1 (configuration not stated) | < 1
CCS(=O)(=O)N1CCC(n2c(=O)[nH]c3cc(Nc4ccccc4F)ccc32)C1 (configuration not stated) | < 1

Compound | IC50 [µM]
Cc1ccccc1Nc1cc2[nH]c(=O)n(CC3CCCCC3)c2cc1N(C)CCN(C)C | < 1
CC(C)(CN)n1c(=O)[nH]c2cc(Nc3ccc(F)cc3)ccc21 | < 1
Cc1ccccc1Nc1ccc2c(c1)[nH]c(=O)n2C1CCNC1 (configuration not stated) | < 1
O=c1[nH]c2cc(Nc3ccccc3)ccc2n1C1CCCC1 | < 1
O=c1[nH]c2cc(Nc3ccccc3)ccc2n1C1CCNC1 (configuration not stated) | < 1
O=c1[nH]c2cc(Nc3ccccc3)ccc2n1CCc1ccccc1 | < 1
O=c1[nH]c2cc(Nc3ccccc3F)ccc2n1C1CCNC1 (configuration not stated) | < 1
CN1CCC(n2c(=O)[nH]c3cc(Nc4ccc(F)cc4F)ccc32)C1 (configuration not stated) | < 1
O=c1[nH]c2cc(Nc3ccccc3)ccc2n1C1CCCc2ccccc21 (configuration not stated) | < 1
CN(C)CC(C)(C)n1c(=O)[nH]c2cc(Nc3ccc(F)cc3F)ccc21 | < 1
O=c1[nH]c2cc(Nc3ccccc3)ccc2n1Cc1c(F)cccc1F | < 1
CS(=O)(=O)N1CCC(n2c(=O)[nH]c3cc(Nc4ccc(F)cc4)ccc32)C1 (configuration not stated) | < 1
CNCC(C)(C)n1c(=O)[nH]c2cc(Nc3ccccc3C)ccc21 | < 1
CC(C)(C)n1c(=O)[nH]c2cc(Nc3ccccc3)ccc21 | < 1
O=c1[nH]c2cc(Nc3cccc(F)c3)ccc2n1CC1CCCCC1 | < 1
CC(C)(CN)n1c(=O)[nH]c2cc(Nc3ccc(F)cc3F)ccc21 | < 1
O=c1[nH]c2cc(Nc3ccccc3)c(N3CCNCC3)cc2n1CC1CCCCC1 | < 1

The next lines start with the values.

IC50 [µM] | Compound
< 1 | Cc1ccc(Nc2ccc3c(c2)[nH]c(=O)n3CC2CCCCC2)cc1N
< 1 | CCS(=O)(=O)N1CCC(n2c(=O)[nH]c3cc(Nc4ccc(F)cc4)ccc32)C1 (configuration not stated)
< 1 | O=c1[nH]c2cc(Nc3ccc(F)cc3F)ccc2n1C1CCNC1 (configuration not stated)
< 1 | CC(C)(CN)n1c(=O)[nH]c2cc(Nc3ccccc3)ccc21
< 1 | CN1CCN(c2cc3c(cc2Nc2ccccc2F)[nH]c(=O)n3C2CCCC2)CC1
< 1 | CN(C)CC(C)(C)n1c(=O)[nH]c2cc(Nc3ccccc3F)ccc21
< 1 | Cc1ccccc1Nc1cc2[nH]c(=O)n(CC3CCCCC3)c2cc1N1CCN(C)CC1
< 1 | O=c1[nH]c2cc(Nc3ccccc3F)ccc2n1CC1CCCCC1
< 1 | O=c1[nH]c2cc(Nc3ccc(F)cc3)ccc2n1CC1CCCCC1
< 1 | O=c1[nH]c2cc(Nc3ccc(F)cc3)ccc2n1C1CCNC1 (configuration not stated)
< 1 | CN(C)CC(C)(C)n1c(=O)[nH]c2cc(Nc3ccccc3)ccc21
< 1 | COc1cccc(Cn2c(=O)[nH]c3cc(Nc4ccccc4)ccc32)c1
< 1 | Cc1ccccc1Nc1cc2[nH]c(=O)n(CC3CCCCC3)c2cc1N(C)CCCN(C)C
< 1 | O=c1[nH]c2cc(Nc3ccc(F)c(F)c3)ccc2n1CC1CCCCC1
< 1 | COc1ccccc1Nc1ccc2c(c1)[nH]c(=O)n2CC1CCCCC1
< 1 | O=c1[nH]c2cc(Nc3ccccc3)ccc2n1CC1CCCCC1
< 1 | CC(c1ccccc1)n1c(=O)[nH]c2cc(Nc3ccccc3)ccc21 (configuration not stated)
< 1 | CN1CCC(n2c(=O)[nH]c3cc(Nc4ccc(F)cc4)ccc32)C1 (configuration not stated)
< 1 | O=c1[nH]c2cc(Nc3ccccc3)ccc2n1Cc1cccnc1
< 1 | CNCC(C)(C)n1c(=O)[nH]c2cc(Nc3ccccc3)ccc21
< 1 | Cc1ccccc1Nc1ccc2c(c1)[nH]c(=O)n2C(C)(C)CN(C)C
< 1 | O=c1[nH]c2cc(Nc3ccccc3)ccc2n1CC1CCCO1 (configuration not stated)
< 1 | CC(C)(CN)n1c(=O)[nH]c2cc(Nc3ccccc3F)ccc21
< 1 | CNCC(C)(C)n1c(=O)[nH]c2cc(Nc3ccc(F)cc3)ccc21
< 1 | Cc1ccccc1Nc1ccc2c(c1)[nH]c(=O)n2CC1CCCCC1
< 1 | O=c1[nH]c2cc(Nc3ccc(F)cc3F)ccc2n1CC1CCCCC1
< 1 | O=c1[nH]c2cc(Nc3ccccc3F)c(N3CCNCC3)cc2n1CC1CCCCC1
